Experimental data: patent US20060004019A1, “Steroid sparing agents and methods of using same” (priority 2004, published 2006)

What was measured:
rat cardiac allografts [1] = experiment: Rat cardiac allograft study, Allograft Study 5, dose response (Table 23); type: in vivo
rat cardiac allografts [2] = experiment: Rat cardiac allograft study, Allograft Study 4 (Table 22); conditions: s.c., GG5/3 3 mg/kg, compounds 30 mg/kg;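 also: heterotopic abdominal heart transplants from Lewis × Brown Norway F1 donors into male Lewis rats, graft beating checked daily by flank palpation, rejection defined as complete stop of heartbeat, transplant day 0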
Description: Hearts from Lewis X Brown Norway F1 hybrids were transplanted to the abdominal great vessels of Lewis recipients using standard microvascular techniques. Both rat strains were male inbred rats, weighing 200-300 g. Food and water was available at all times except during surgical and dosing procedures. The day of transplantation was noted as day 0. Twelve hours following the last dose approximately 1 ml of blood was collected into lithium/heparin anti-coagulant tubes. If any graft was rejected prior to the last day of dosing, blood samples were taken 12 hours after dosing on the day that graft rejection was noted. All blood samples were centrifuged at 3000 rpm for 10 minutes and the plasma was harvested, frozen on dry ice and stored frozen at −20 C prior to analysis. Allograft survival in the rats was evaluated by daily palpation of the transplanted heart through the recipient's flank. Rejection was taken as the day of complete cessation of the graft's heart beat. Upon determination of rejection, the abdomen of the recipient was incised and retracted to confirm cessation of the heart beat in the transplanted heart. If cessation of the heart beat was not confirmed the abdomen was surgically closed, and the grafted heart was evaluated daily.
Cardiac allografts were established. Dosing of compounds began on day −2, 2 days prior to transplantation and continued through day +10. […] The vehicle control, 0.9% saline, pH adjusted to a value of 5, to match the dosing solution containing the N-[N-(3-pyridinesulfonyl)-L-3,3-dimethyl-4-thiaprolyl]-0-[1-methylpiperazin-4-ylcarbonyl]-L-tyrosine isopropyl ester, was administered via the same route, i.e. every 12 hours, day −2 through day +10. The antibody, GG5/3 in 0.9% saline, was administered at 3 mg/kg, s.c., on day 0, +3, +7 and +10. All GG5/3 animals received twice daily s.c. injections of 0.9% saline, every 12 hours, from day −2 through day +10. The vehicle control, 0.9% saline, was administered daily, s.c., day 0 through day +10. All dosing solutions were formulated daily at a constant dose volume of 5 ml/kg. The site of injection was rotated at each injection through four possible sites: right and left fore flank, right and left rear flank. A total of 21 allografts, amongst 5 groups, were evaluated in the study. […] Two animals within the 0.9% saline group received saline adjusted to a pH a value of 5. (The pH value of the N-[N-(3-pyridinesulfonyl)-L-3,3-dimethyl-4-thiaprolyl]-0-[1-methylpiperazin-4-ylcarbonyl]-L-tyrosine isopropyl ester dosing solution.) The remaining two animals received saline of pH 7. Group 2 consisted of 6 animals treated with the monoclonal antibody, GG5/3. […] Twelve hours following the last dose approximately 1 ml of blood was collected into lithium/heparin anti-coagulant tubes. If any graft was rejected prior to the last day of dosing, blood samples were taken 12 hours after dosing on the day that graft rejection was noted. All samples were centrifuged at 3000 rpm for 10 minutes and the plasma was harvested, frozen on dry ice and stored frozen at −20 C prior to dispatch for analysis. Allograft survival in the rats was evaluated by daily palpation of the transplanted heart through the recipient's flank. Rejection was taken as the day of complete cessation of graft's heart beat. Upon determination of rejection, the abdomen of the recipient was incised to confirm cessation of the heart beat in the transplanted heart. If cessation of the heart beat was not confirmed the abdomen was surgically closed, and the graft was evaluated daily.

SMILES: CC(C)OC(=O)[C@H](Cc1ccc(OC(=O)N2CCN(C)CC2)cc1)NC(=O)[C@H]1N([S+]([O-])c2cccnc2)CSC1(C)C (some centres unmarked)
- number of surviving grafts (rat cardiac allografts [1]; day 0, 3 mg/kg s.c.): 6
- number of surviving grafts (rat cardiac allografts [1]; day 1, 3 mg/kg s.c.): 6
- number of surviving grafts (rat cardiac allografts [1]; day 2, 3 mg/kg s.c.): 6
- number of surviving grafts (rat cardiac allografts [1]; day 3, 3 mg/kg s.c.): 6
- number of surviving grafts (rat cardiac allografts [1]; day 4, 3 mg/kg s.c.): 6
- number of surviving grafts (rat cardiac allografts [1]; day 5, 3 mg/kg s.c.): 6
- number of surviving grafts (rat cardiac allografts [1]; day 6, 3 mg/kg s.c.): 6
- number of surviving grafts (rat cardiac allografts [1]; day 7, 3 mg/kg s.c.): 5
- number of surviving grafts (rat cardiac allografts [1]; day 8, 3 mg/kg s.c.): 5
- number of surviving grafts (rat cardiac allografts [1]; day 9, 3 mg/kg s.c.): 3
- number of surviving grafts (rat cardiac allografts [1]; day 10, 3 mg/kg s.c.): 0
- number of surviving grafts (rat cardiac allografts [1]; day 11, 3 mg/kg s.c.): 0
- number of surviving grafts (rat cardiac allografts [1]; day 12, 3 mg/kg s.c.): 0
- number of surviving grafts (rat cardiac allografts [1]; day 13, 3 mg/kg s.c.): 0
- number of surviving grafts (rat cardiac allografts [1]; day 14, 3 mg/kg s.c.): 0
- graft survival, data normalized to group size (rat cardiac allografts [1]; day 15, 3 mg/kg s.c.): 0%
- number of surviving grafts (rat cardiac allografts [1]; day 15, 3 mg/kg s.c.): 0
- graft survival, data normalized to group size (rat cardiac allografts [1]; day 16, 3 mg/kg s.c.): 16%
- number of surviving grafts (rat cardiac allografts [1]; day 16, 3 mg/kg s.c.): 0
- graft survival, data normalized to group size (rat cardiac allografts [1]; day 17, 3 mg/kg s.c.): 17%
- number of surviving grafts (rat cardiac allografts [1]; day 17, 3 mg/kg s.c.): 0
- graft survival, data normalized to group size (rat cardiac allografts [1]; day 18, 3 mg/kg s.c.): 18%
- number of surviving grafts (rat cardiac allografts [1]; day 18, 3 mg/kg s.c.): 0
- graft survival, data normalized to group size (rat cardiac allografts [1]; day 19, 3 mg/kg s.c.): 19%
- number of surviving grafts (rat cardiac allografts [1]; day 19, 3 mg/kg s.c.): 0
- graft survival, data normalized to group size (rat cardiac allografts [1]; day 20, 3 mg/kg s.c.): 20%
- number of surviving grafts (rat cardiac allografts [1]; day 20, 3 mg/kg s.c.): 0
- graft survival, data normalized to group size (rat cardiac allografts [1]; day 21, 3 mg/kg s.c.): 21%
- number of surviving grafts (rat cardiac allografts [1]; day 21, 3 mg/kg s.c.): 0

SMILES: CC(C)OC(=O)[C@H](Cc1ccc(OC(=O)N2CCN(C)CC2)cc1)NC(=O)[C@H]1N(S(=O)(=O)c2cccnc2)CSC1(C)C [listing 1 of 3 here]
- number of surviving grafts (rat cardiac allografts [2]; day 0): 6
- number of surviving grafts (rat cardiac allografts [2]; day 1): 6
- number of surviving grafts (rat cardiac allografts [2]; day 2): 6
- number of surviving grafts (rat cardiac allografts [2]; day 3): 6
- number of surviving grafts (rat cardiac allografts [2]; day 4): 6
- number of surviving grafts (rat cardiac allografts [2]; day 5): 6
- number of surviving grafts (rat cardiac allografts [2]; day 6): 6
- number of surviving grafts (rat cardiac allografts [2]; day 7): 6
- number of surviving grafts (rat cardiac allografts [2]; day 8): 6
- number of surviving grafts (rat cardiac allografts [2]; day 9): 5
- number of surviving grafts (rat cardiac allografts [2]; day 10): 4
- number of surviving grafts (rat cardiac allografts [2]; day 11): 4
- number of surviving grafts (rat cardiac allografts [2]; day 12): 4
- number of surviving grafts (rat cardiac allografts [2]; day 13): 4
- number of surviving grafts (rat cardiac allografts [2]; day 14): 4
- number of surviving grafts (rat cardiac allografts [2]; day 15): 4
- number of surviving grafts (rat cardiac allografts [2]; day 16): 3
- number of surviving grafts (rat cardiac allografts [2]; day 17): 3
- number of surviving grafts (rat cardiac allografts [2]; day 18): 3
- number of surviving grafts (rat cardiac allografts [2]; day 19): 3

SMILES: CC(C)OC(=O)[C@H](Cc1ccc(OC(=O)N2CCN(C)CC2)cc1)NC(=O)[C@H]1N(S(=O)(=O)c2cccnc2)CSC1(C)C [listing 2 of 3 here]
- number of surviving grafts (rat cardiac allografts [1]; day 0, 10 mg/kg s.c.): 5
- number of surviving grafts (rat cardiac allografts [1]; day 1, 10 mg/kg s.c.): 5
- number of surviving grafts (rat cardiac allografts [1]; day 2, 10 mg/kg s.c.): 5
- number of surviving grafts (rat cardiac allografts [1]; day 3, 10 mg/kg s.c.): 5
- number of surviving grafts (rat cardiac allografts [1]; day 4, 10 mg/kg s.c.): 5
- number of surviving grafts (rat cardiac allografts [1]; day 5, 10 mg/kg s.c.): 5
- number of surviving grafts (rat cardiac allografts [1]; day 6, 10 mg/kg s.c.): 5
- number of surviving grafts (rat cardiac allografts [1]; day 7, 10 mg/kg s.c.): 5
- number of surviving grafts (rat cardiac allografts [1]; day 8, 10 mg/kg s.c.): 5
- number of surviving grafts (rat cardiac allografts [1]; day 9, 10 mg/kg s.c.): 4
- number of surviving grafts (rat cardiac allografts [1]; day 10, 10 mg/kg s.c.): 4
- number of surviving grafts (rat cardiac allografts [1]; day 11, 10 mg/kg s.c.): 4
- number of surviving grafts (rat cardiac allografts [1]; day 12, 10 mg/kg s.c.): 4
- number of surviving grafts (rat cardiac allografts [1]; day 13, 10 mg/kg s.c.): 2
- number of surviving grafts (rat cardiac allografts [1]; day 14, 10 mg/kg s.c.): 2
- graft survival, data normalized to group size (rat cardiac allografts [1]; day 15, 10 mg/kg s.c.): 40%
- number of surviving grafts (rat cardiac allografts [1]; day 15, 10 mg/kg s.c.): 2
- graft survival, data normalized to group size (rat cardiac allografts [1]; day 16, 10 mg/kg s.c.): 20%
- number of surviving grafts (rat cardiac allografts [1]; day 16, 10 mg/kg s.c.): 1
- graft survival, data normalized to group size (rat cardiac allografts [1]; day 17, 10 mg/kg s.c.): 20%
- number of surviving grafts (rat cardiac allografts [1]; day 17, 10 mg/kg s.c.): 1
- graft survival, data normalized to group size (rat cardiac allografts [1]; day 18, 10 mg/kg s.c.): 20%
- number of surviving grafts (rat cardiac allografts [1]; day 18, 10 mg/kg s.c.): 1
- graft survival, data normalized to group size (rat cardiac allografts [1]; day 19, 10 mg/kg s.c.): 20%
- number of surviving grafts (rat cardiac allografts [1]; day 19, 10 mg/kg s.c.): 1
- graft survival, data normalized to group size (rat cardiac allografts [1]; day 20, 10 mg/kg s.c.): 20%
- number of surviving grafts (rat cardiac allografts [1]; day 20, 10 mg/kg s.c.): 1
- graft survival, data normalized to group size (rat cardiac allografts [1]; day 21, 10 mg/kg s.c.): 20%
- number of surviving grafts (rat cardiac allografts [1]; day 21, 10 mg/kg s.c.): 1

SMILES: CC(C)OC(=O)[C@H](Cc1ccc(OC(=O)N2CCN(C)CC2)cc1)NC(=O)[C@H]1N(S(=O)(=O)c2cccnc2)CSC1(C)C [listing 3 of 3 here]
- number of surviving grafts (rat cardiac allografts [1]; day 0, 30 mg/kg s.c.): 6
- number of surviving grafts (rat cardiac allografts [1]; day 1, 30 mg/kg s.c.): 6
- number of surviving grafts (rat cardiac allografts [1]; day 2, 30 mg/kg s.c.): 6
- number of surviving grafts (rat cardiac allografts [1]; day 3, 30 mg/kg s.c.): 6
- number of surviving grafts (rat cardiac allografts [1]; day 4, 30 mg/kg s.c.): 6
- number of surviving grafts (rat cardiac allografts [1]; day 5, 30 mg/kg s.c.): 6
- number of surviving grafts (rat cardiac allografts [1]; day 6, 30 mg/kg s.c.): 6
- number of surviving grafts (rat cardiac allografts [1]; day 7, 30 mg/kg s.c.): 6
- number of surviving grafts (rat cardiac allografts [1]; day 8, 30 mg/kg s.c.): 6
- number of surviving grafts (rat cardiac allografts [1]; day 9, 30 mg/kg s.c.): 6
- number of surviving grafts (rat cardiac allografts [1]; day 10, 30 mg/kg s.c.): 6
- number of surviving grafts (rat cardiac allografts [1]; day 11, 30 mg/kg s.c.): 6
- number of surviving grafts (rat cardiac allografts [1]; day 12, 30 mg/kg s.c.): 6
- number of surviving grafts (rat cardiac allografts [1]; day 13, 30 mg/kg s.c.): 6
- number of surviving grafts (rat cardiac allografts [1]; day 14, 30 mg/kg s.c.): 6
- graft survival, data normalized to group size (rat cardiac allografts [1]; day 15, 30 mg/kg s.c.): 100%
- number of surviving grafts (rat cardiac allografts [1]; day 15, 30 mg/kg s.c.): 6
- graft survival, data normalized to group size (rat cardiac allografts [1]; day 16, 30 mg/kg s.c.): 100%
- number of surviving grafts (rat cardiac allografts [1]; day 16, 30 mg/kg s.c.): 6
- graft survival, data normalized to group size (rat cardiac allografts [1]; day 17, 30 mg/kg s.c.): 100%
- number of surviving grafts (rat cardiac allografts [1]; day 17, 30 mg/kg s.c.): 6
- graft survival, data normalized to group size (rat cardiac allografts [1]; day 18, 30 mg/kg s.c.): 100%
- number of surviving grafts (rat cardiac allografts [1]; day 18, 30 mg/kg s.c.): 6
- graft survival, data normalized to group size (rat cardiac allografts [1]; day 19, 30 mg/kg s.c.): 100%
- number of surviving grafts (rat cardiac allografts [1]; day 19, 30 mg/kg s.c.): 6
- graft survival, data normalized to group size (rat cardiac allografts [1]; day 20, 30 mg/kg s.c.): 100%
- number of surviving grafts (rat cardiac allografts [1]; day 20, 30 mg/kg s.c.): 6
- graft survival, data normalized to group size (rat cardiac allografts [1]; day 21, 30 mg/kg s.c.): 83%
- number of surviving grafts (rat cardiac allografts [1]; day 21, 30 mg/kg s.c.): 5
